For five compounds, IC50, Activity and EC50 results are on record in ChEMBL document CHEMBL2331244, “Selective 3-phosphoinositide-dependent kinase 1 (PDK1) inhibitors: dissecting the function and pharmacology of PDK1” (J Med Chem, 2013).

Structures are written as SMILES.

Assay [1] deals with T1, 3-phosphoinositide-dependent protein kinase 1 (Homo sapiens, UniProt O15530).
T1 sequence (O15530 whole entry): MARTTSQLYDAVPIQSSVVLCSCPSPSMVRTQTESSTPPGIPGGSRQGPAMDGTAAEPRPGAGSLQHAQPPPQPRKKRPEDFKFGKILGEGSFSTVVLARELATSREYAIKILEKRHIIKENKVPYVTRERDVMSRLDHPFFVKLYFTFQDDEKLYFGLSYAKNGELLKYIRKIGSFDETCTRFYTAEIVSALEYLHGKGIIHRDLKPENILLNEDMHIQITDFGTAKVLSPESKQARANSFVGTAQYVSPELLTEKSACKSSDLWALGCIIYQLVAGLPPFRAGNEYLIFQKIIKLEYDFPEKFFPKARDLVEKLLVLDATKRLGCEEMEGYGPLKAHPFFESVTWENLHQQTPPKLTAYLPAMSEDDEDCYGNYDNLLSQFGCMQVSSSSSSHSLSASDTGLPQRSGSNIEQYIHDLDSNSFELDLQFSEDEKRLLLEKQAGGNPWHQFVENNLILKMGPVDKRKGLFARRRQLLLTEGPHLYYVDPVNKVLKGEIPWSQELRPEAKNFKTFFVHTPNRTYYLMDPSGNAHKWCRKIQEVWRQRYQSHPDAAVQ
Put plainly: Inhibition of PDK1 (unknown origin).

Assay [2] addresses Serine/threonine-protein kinase mTOR (Homo sapiens, UniProt P42345). Put plainly: Inhibition of MTOR (unknown origin).
The target in assay [3] is T2, 3-phosphoinositide-dependent protein kinase 1 (Homo sapiens) (UniProt O15530).
T2 sequence (whole entry): T1 sequence (O15530 whole entry)
Put plainly: Agonist activity at PDK1 (unknown origin) using T308tide as substrate assessed as concentration required to elicit 50% response in presence of [gamma-32P]ATP.

Assay [4] has as its target T2, 3-phosphoinositide-dependent protein kinase 1 (Homo sapiens). Description: Agonist activity at human N-terminal His6-tagged PDK1 amino acid residues 51 to 359 expressed in insect sf21 cells using T308tide as substrate at 313 uM incubated for 60 mins prior to substrate addition measured after 60 mins by ATP depletion assay.
The target in assay [5] is T1, 3-phosphoinositide-dependent protein kinase 1. Put plainly: Inhibition of recombinant PDK1 (unknown origin) using RPRAATF peptide as substrate assessed as substrate phosphorylation by scintillation counting analysis in presence of [gamma-32P]ATP.
A further assay relates to LNCaP. Put plainly: Antiproliferative activity against PTEN-deficient human LNCAP cells after 72 hrs by ATP ViaLight assay. Type of assay: functional, cell-based.
The next assay concerns HCT-116. Description: Antiproliferative activity against human HCT116 cells harboring PI3KCA/KRAS double mutant after 72 hrs by ATP ViaLight assay. Type of assay: functional, cell-based. The following applies: HCT-116, 72 h.
The subject of the next assay is LS-513. Put plainly: Antiproliferative activity against human LS513 cells harboring KRAS mutant after 72 hrs by ATP ViaLight assay. Type of assay: functional, cell-based. The following applies: LS-513, 72 h.
A short description of assay [6]: Antiproliferative activity against human NCI-H1915 cells harboring KRAS mutant after 72 hrs by ATP ViaLight assay. Type of assay: functional, cell-based. The conditions noted are these: NCI-H1915, 72 h.
Another assay deals with MDA-MB-453. Description: Antiproliferative activity against human MDA-MB-453 cells harboring PI3KCA mutant after 72 hrs by ATP ViaLight assay. Type of assay: functional, cell-based. The conditions noted are these: MDA-MB-453, 72 h.
Another assay deals with A-427. Put plainly: Antiproliferative activity against human A427 cells harboring KRAS mutant after 72 hrs by ATP ViaLight assay. Type of assay: functional, cell-based. The following applies: A-427, 72 h.
Assay [7] is described as follows: Antiproliferative activity against PTEN-deficient human […] cells after 72 hrs by ATP ViaLight assay. Type of assay: functional, cell-based.
The subject of a further assay is UMC-11. Put plainly: Antiproliferative activity against human UMC11 cells after 72 hrs by ATP ViaLight assay. Type of assay: functional, cell-based. The following applies: UMC-11, 72 h.
In the next assay the test system is NCI-H1437. Put plainly: Antiproliferative activity against human NCI-H1437 cells after 72 hrs by ATP ViaLight assay. Type of assay: functional, cell-based. The conditions noted are these: NCI-H1437, 72 h.
For the next assay, the system named is PC-3. Description: Antiproliferative activity against PTEN-deficient human PC3 cells after 72 hrs by ATP ViaLight assay. Type of assay: functional, cell-based. The following applies: PC-3, 72 h.
Another assay has as its system BT-474. Put plainly: Antiproliferative activity against human BT474 cells harboring PI3KCA mutant after 72 hrs by ATP ViaLight assay. Type of assay: functional, cell-based. The conditions noted are these: BT-474, 72 h.
The subject of another assay is A549. Description: Antiproliferative activity against human A549 cells harboring KRAS mutant after 72 hrs by ATP ViaLight assay. Type of assay: functional, cell-based. The following applies: A549, 72 h.
The test system of the next assay is MCF7. Description: Antiproliferative activity against human MCF7 cells harboring PI3KCA mutant after 72 hrs by ATP ViaLight assay. Type of assay: functional, cell-based. The conditions noted are these: MCF7, 72 h.
A short description of assay [8]: Antiproliferative activity against PTEN-deficient human U87 cells after 72 hrs by ATP ViaLight assay. Type of assay: functional, cell-based, U-87MG ATCC. The conditions noted are these: U-87 MG.
Another assay concerns MDA-MB-231. Description: Antiproliferative activity against human MDA-MB-231 cells harboring KRAS mutant after 72 hrs by ATP ViaLight assay. Type of assay: functional, cell-based. The conditions noted are these: MDA-MB-231, 72 h.
In a further assay the test system is NCI-H446. Put plainly: Antiproliferative activity against PTEN-deficient human NCI-H446 cells after 72 hrs by ATP ViaLight assay. Type of assay: functional, cell-based. The following applies: NCI-H446, 72 h.
Another assay concerns T47D. Description: Antiproliferative activity against human T47D cells harboring PI3KCA mutant after 72 hrs by ATP ViaLight assay. Type of assay: functional, cell-based.

The IC50 is the point on the concentration scale where inhibition reaches its midpoint. For `O=P(O)(O)O[C@@H]1[C@@H](OP(=O)(O)O)[C@@H](OP(=O)(O)O)[C@@H](OCc2ccccc2)[C@H](OP(=O)(O)O)[C@H]1OP(=O)(O)O`, the IC50 in [1] came to 0.0265 µM; in assay [2], 1.3 µM.
`O=C(O)CSC(CC(=O)c1ccc(Cl)cc1)c1ccccc1` (configuration not stated): the Activity in assay [3] was determined as 34 µM.
In assay [4], `COc1ccc(CC(C(=O)O)c2ccccc2)cc1` (configuration not stated) came in with an Activity of 33%.
On to `NC(N)=Nc1ccc(-n2nc(C(F)(F)F)cc2-c2ccc3c(ccc4ccccc43)c2)cc1`, for which the IC50 in assay [5] turned out to be 2 µM.
For orientation: EC50 means the concentration that produces a half-maximal response. Low values mean greater potency, high ones weaker potency. As for `O=C(N[C@@H](COc1ccc2[nH]c(=O)[nH]c2c1)c1ccccc1)c1cccn(Cc2ccc(F)c(F)c2)c1=O`, the EC50 (in the assay on LNCaP; with HCT-116; with LS-513; in [6]; in the assay with MDA-MB-453; in the assay with A-427) was over 9 µM in each case. Moreover, the EC50 (in assay [7]; in the assay with UMC-11; with NCI-H1437; with PC-3; with BT-474; in the assay on A549) was over 9 µM in each case. Further, the EC50 (in the assay on MCF7; in assay [8]; in the assay with MDA-MB-231; in the assay on NCI-H446; in the assay on T47D) was over 9 µM in each case.
